Assay results from patent publication US20190106697A1, “Inhibition Of Lactate Transporters For Use In The Treatment Of Inflammatory Diseases” (Queen Mary University of London, priority 2014, published 2019).

What was measured:
Type in all cases: cell-based, mouse
CD8+ cytotoxic T-cells = assay: CTL cytotoxicity assay with allogeneic endothelial cells; settings: 10 mM
Experimental: CTL differentiation and activity assay: Isolated CD8+ T-cells (balb/c) were incubated with CD3-depleted and mytomycin-C-eradicated allogeneic splenocytes (C57BL/6). […] Dead cells were counted using trypan blue exclusion assay 2, 4, 6 and 18 hours after the start of the assay.

activated CD4+ T-cells [1] = assay: CCL5-induced chemokinesis of activated CD4+ T-cells; settings: 10 mM; CCL5 50 ng/ml
Text: (§1) T-cell isolation, in-vitro activation and subset enrichment: T-cells were isolated from C57BL/6 murine lymph nodes and activated for 3 to 5 days with plate bound anti-CD3 and anti-CD28 antibodies (BioLegend), and IL-2 (PeproTech). CD4+ and CD8+ subsets were enriched with commercially available CD4+ and CD8+ T-cell isolation kits according to the manufacturer's instructions (Easysep, Invitrogen) either prior or post activation according to experimental settings. Chemokinesis assays: Chemokinesis assays were performed in 5 μm transwell inlays. In some experiments, T-cells were pre-treated overnight with a number of drugs purchased from Calbiochem: Rapamycin (200 nM), 2-DG (1 mM), Metformin (2 mM). […] 3×10^6 lymphocytes were seeded in the upper transwell chamber; chemokines were added to the lower chamber: CXCL10 (300 ng/ml), CCL5 (50 ng/ml), CCL19/21 (200 ng/ml of each chemokine). Migrated T-cells were counted with a hemocytometer 2, 4 and 6 hours after seeding and % of migrated cells was calculated.

activated CD4+ T-cells [2] = assay: In vitro chemokinesis of activated CD4+ T-cells towards CXCL10 (transwell); settings: 10 mM lactic acid or sodium lactate, CXCL10 300 ng/ml
Text: as §1

activated CD8+ T-cells [3] = assay: Glucose uptake and flux with 2-NBDG / 6-NBDG in CD8+ T-cells; settings: 2-NBDG and 6-NBDG probes
Experimental: Measurement of lactate, glycolysis, glucose uptake/flux and cell death: Lactate concentration was measured in the synovial fluid or peritoneal lavage using the Lactate assay Kit (Biovision), according to the manufacturer's instructions. Glycolytic metabolism was measured with a Seahorse XF24 Extracellular Flux Analyzer. Briefly, T-cells were grown in high glucose RPMI-1640 supplemented with 10% FCS. […] T-cell viability upon lactate or metabolic drug treatment was assessed by trypan blue exclusion assay.

activated CD8+ T-cells [4] = assay: In vitro chemokinesis of activated CD8+ T-cells towards CXCL10 (transwell)
Text: as §1

Q: What does the source list for `CC(O)C(=O)O` (stereo not shown) [lactic-acid]?
A: cytolytic activity of CTLs (CD8+ cytotoxic T-cells): inhibited; CCL5-induced migration of CD4+ T-cells (activated CD4+ T-cells [1]): not; CXCL10-induced chemokinesis of activated CD4+ T-cells (activated CD4+ T-cells [2]): not vice versa; CXCL10-induced chemokinesis of activated CD4+ T-cells (activated CD4+ T-cells [2]; listed as lactic acid): not affected; glucose uptake and flux through glycolysis in CD8+ T-cells (activated CD8+ T-cells [3]): vice versa; CXCL10-induced chemokinesis of activated CD8+ T-cells (activated CD8+ T-cells [4]; 10 mM lactic acid or sodium lactate, CXCL10 300 ng/ml): inhibited; chemokinesis of CD8+ T-cells, culture media buffered to neutral pH (activated CD8+ T-cells [4]; lactic-acid with bicarbonate or HEPES to reach a neutral pH): still impaired
